The results in this text go back to patent US11273169B2, “Food for improving intestinal environment” (AJINOMOTO CO., INC., priority 2017, dated 2022).

In the experiment the test system is lactic acid bacteria group (mainly, Lactobacillus spp.). The experiment in a line: Addition test of γ-PGA and fructo-oligosaccharide to human feces suspension. Type of experiment: cell-based. To be noted: human feces suspension in PBS medium, anaerobic culture 37° C. 4 days, quantitative PCR, 0.1-1.0% γ-PGA, 0.5% FOS, n=6. The protocol: The PBS solutions of Examples and Comparative Examples shown in Table 1 were prepared and used as media for feces culture. PBS alone was used as a negative control. As γ-PGA, polyglutamic acid “CALTAKE” manufactured by Ajinomoto Co., Inc. was used, and as FOS, fructo-oligosaccharide manufactured by Wako Pure Chemical Industries, Ltd. was used.
Thereafter, 10 ml each was dispensed into glass vials and the glass vials were sterilized by autoclave, made anaerobic, and sealed with a butyl rubber stopper. The feces suspension was prepared by collecting about 10 g of feces from 6 healthy individuals (3 men and 3 women) in their 20s to 40s and suspending same in 80 ml of anaerobic PBS. […] DNA was extracted from this pellet using ISOFECAL for BeadsBeat (manufactured by NIPPON GENE CO., LTD.), and quantitative PCR was performed using GeneAce SYBR qPCR Mix α (manufactured by NIPPON GENE CO., LTD.). Quantitative PCR was performed under the conditions of 45 cycles of 95° C. for 30 sec and 60° C. for 60 sec after 95° C. for 10 min. Primers for quantitative PCR used for detection of lactic acid bacteria group (mainly, Lactobacillus spp.) were as follows.
Using the results obtained by quantitative PCR, the relative amount when PBS alone (negative control) is 1 was calculated, and the results were normalized with z-score. […]

For the substance γ-polyglutamic acid [γ-PGA], the “proliferation of the lactic acid bacteria group” value is given as “not observed”.
